Results reported in paper PMC8365602 (Journal of Medicinal Chemistry, 2021).
Like-named read-outs stand apart in the source and are kept apart here.

Tests used:
5-LOX [1] = biological target: T1, 5-LOX (Homo sapiens, UniProt P09917); assay: 5-LOX product formation in activated PMNL; conditions: for remaining activity at 3 µM / remaining activity at 1 µM: PMNL;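 for all read-outs here: freshly isolated human PMNL in PBS pH 7.4 plus glucose, preincubated 10 min at 37 °C with compound, 5-LOX products (all-trans LTB4 isomers, 5-HETE) quantified by RP-HPLC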
T1 sequence (P09917 1-674): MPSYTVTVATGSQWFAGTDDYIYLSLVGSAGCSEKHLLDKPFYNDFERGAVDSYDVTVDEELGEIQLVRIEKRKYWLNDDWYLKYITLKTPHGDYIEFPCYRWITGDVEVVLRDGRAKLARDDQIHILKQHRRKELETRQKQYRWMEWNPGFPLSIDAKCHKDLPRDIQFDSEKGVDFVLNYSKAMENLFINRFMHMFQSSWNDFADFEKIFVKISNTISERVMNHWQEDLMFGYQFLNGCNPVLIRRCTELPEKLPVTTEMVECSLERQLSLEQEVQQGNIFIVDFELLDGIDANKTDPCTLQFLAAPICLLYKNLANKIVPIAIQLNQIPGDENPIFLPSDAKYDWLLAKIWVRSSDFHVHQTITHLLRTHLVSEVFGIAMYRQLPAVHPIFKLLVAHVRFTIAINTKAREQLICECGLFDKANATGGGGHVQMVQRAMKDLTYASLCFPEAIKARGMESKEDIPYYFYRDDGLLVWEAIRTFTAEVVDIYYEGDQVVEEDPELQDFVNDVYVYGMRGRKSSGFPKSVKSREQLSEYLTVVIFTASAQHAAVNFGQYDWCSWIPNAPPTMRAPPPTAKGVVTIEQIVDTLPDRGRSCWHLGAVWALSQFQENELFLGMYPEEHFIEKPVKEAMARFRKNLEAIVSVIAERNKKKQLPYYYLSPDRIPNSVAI

5-LOX [2] = biological target: T1, 5-LOX; assay: Cell-free 5-LOX activity (isolated human recombinant enzyme)
Method: Human recombinant 5-LOX was expressed in E. coli Bl21 (DE3) cells that were transformed with pT3–5LOX (wt 5-LOX), 5-LOX_3W (triple mutation of Trp102Ala/Trp13Ala/Trp75Ala), or 5-LOX_R (single mutant of the Arg101Asp plasmid) and purified on an ATP-agarose column (Econo-Pac, Bio-Rad, Hercules, CA) by affinity chromatography.[6],[75]
Purified 5-LOX (0.5 μg in PBS pH 7.4 containing 1 mM EDTA and 1 mM ATP) was preincubated with the vehicle (DMSO) or test compounds for 10 min and prewarmed at 37 °C.

[3] = read-out: 5-LOX PMNL residual activity at 3 μM
[4] = read-out: 5-LOX PMNL IC50, 5-LOX product formation in activated PMNL, mean ± SEM
[5] = read-out: 5-LOX enzyme IC50, isolated human 5-LOX, cell-free, mean ± SEM
[6] = read-out: 5-LOX enzyme residual activity at 1 μM
[7] = read-out: 5-LOX PMNL residual activity at 3 µM (Table S1)
[8] = read-out: 5-LOX enzyme residual activity at 1 µM (Table S1)

| IC50 (5-LOX [1]) | remaining activity at 3 µM (5-LOX [1]; [7]) | IC50 (5-LOX [2]) | remaining activity at 1 µM (5-LOX [2]; [8]) | remaining activity at 1 µM (5-LOX [1]; read-out: 5-LOX PMNL residual activity at 1 µM (Table S1, cell marked b)) | SMILES | remaining activity at 3 µM (5-LOX [1]; [3]) | IC50 (5-LOX [1]; [4]) | IC50 (5-LOX [2]; [5]) | remaining activity at 1 µM (5-LOX [2]; [6]) | remaining activity at 1 µM (5-LOX [1]; read-out: 5-LOX PMNL residual activity at 1 μM (cells marked b)) |
| --- | --- | --- | --- | --- | --- | --- | --- | --- | --- | --- |
|  |  |  |  |  | C/C(=C\CC/C(C)=C/CC[C@]1(C)CCc2c(CN3CCN(C)CC3)c(O)cc(C)c2O1)CCC=C(CO)CO [Compound 39, 2-((4E,8E)-11-((R)-6-Hydroxy-2,8-dimethyl-5-((4-methylpiperazin-1-yl)methyl)chroman-2-yl)-4,8-dimethylundeca-4,8-dien-1-ylidene)propane-1,3-diol] | 21.6 ± 6.8% | 2.03 ± 0.16 µM | 0.31 ± 0.07 µM | 16 ± 1.9% |  |
| > 3 µM | 91.9 ± 5.3% | > 1 µM | 77.3 ± 17.2% |  | COCOc1cc(C)c2c(c1C=O)CC[C@@](C)(CCC[C@H](C)CCC[C@H](C)CCCC(C)C)O2 [Compound 4, (R)-6-(Methoxymethoxy)-2,8-dimethyl-2-((4R,8R)-4,8,12-trimethyltridecyl)chromane-5-carbaldehyde] |  |  |  |  |  |
|  |  |  |  |  | C/C(=C\CC/C(C)=C/CC[C@]1(C)CCc2cc(O)cc(C)c2O1)CCC=C(CO)CO [Compound 27d, δ-amplexichromanol] |  | 0.43 ± 0.04 µM |  | 1.8 ± 0.9% | 14.7 ± 1.6% |
|  |  |  |  |  | C/C(=C\CC[C@]1(C)CCc2cc(O)cc(C)c2O1)CCC=C(CO)CO [Compound 28, (R,E)-2-(7-(6-Hydroxy-2,8-dimethylchroman-2-yl)-4-methylhept-4-en-1-ylidene)propane-1,3-diol] | 36.3 ± 6.5% | 2.3 ± 0.26 µM | 0.17 ± 0.03 µM | 15 ± 2.4% |  |
| 0.39 ± 0.18 µM |  | 0.09 µM |  |  | COc1ccc(C2OCC(=CCC/C(C)=C/CC/C(C)=C/CC[C@]3(C)CCc4c(C)c(O)c(CO)c(C)c4O3)CO2)cc1OC (stereo partly drawn) [Compound 46, (2R)-2-((3E,7E)-11-(2-(3,4-Dimethoxyphenyl)-1,3-dioxan-5-ylidene)-4,8-dimethylundeca-3,7-dien-1-yl)-7-(hydroxymethyl)-2,5,8-trimethylchroman-6-ol] | 22.2 ± 8.8% |  |  | 0.7 ± 0.1% |  |
|  |  |  |  |  | C/C(=C\CC[C@]1(C)CCc2c(C)c(O)cc(C)c2O1)CC/C=C(\C)CCCC(C)C(=O)O (stereo partly drawn) [Compound 19a, (6E,10E)-13-((R)-6-Hydroxy-2,5,8-trimethylchroman-2-yl)-2,6,10-trimethyltrideca-6,10-dienoic Acid] | 14.2 ± 6.5% | 0.81 ± 0.33 µM | 0.81 ± 0.08 µM | 41.2 ± 6.2% |  |
|  |  |  |  |  | C/C(=C\CC/C(C)=C/CC[C@]1(C)CCc2c(CN3CCCC3)c(O)cc(C)c2O1)CCC=C(CO)CO [Compound 35, 2-((4E,8E)-11-((R)-6-Hydroxy-2,8-dimethyl-5-(pyrrolidin-1-ylmethyl)chroman-2-yl)-4,8-dimethylundeca-4,8-dien-1-ylidene)propane-1,3-diol] | 17.4 ± 2.4% | 1.9 ± 0.11 µM | 0.17 ± 0.03 µM | 4.1 ± 0.2% |  |
|  |  |  |  |  | C/C(=C\CC[C@]1(C)CCc2cc(O)cc(C)c2O1)CC/C=C(\C)CCC(=O)O [Compound 15b, (4E,8E)-11-((R)-6-Hydroxy-2,8-dimethylchroman-2-yl)-4,8-dimethylundeca-4,8-dienoic Acid] | 32 ± 9.8% | 2.19 ± 0.4 µM | 0.47 ± 0.14 µM | 28.8 ± 5.2% |  |
| > 3 µM | 110 ± 10.7% | > 1 µM | 72.9 ± 5.6% |  | Cc1c(C=O)c(O)c(Cl)c2c1O[C@](C)(CCC[C@H](C)CCC[C@H](C)CCCC(C)C)CC2 [Compound 2, (R)-5-Chloro-6-hydroxy-2,8-dimethyl-2-((4R,8R)-4,8,12-trimethyltridecyl)chromane-7-carbaldehyde] |  |  |  |  |  |
|  |  |  |  |  | C/C(=C\CC/C(C)=C/CC[C@]1(C)CCc2c(C)c(O)c(C=O)c(C)c2O1)CCC=C(CO)CO [Compound 33] | 7.5 ± 2.2% | 1.38 ± 0.28 µM | 0.17 ± 0.05 µM | 8.9 ± 3.5% |  |
|  |  |  |  |  | COC(=O)/C(C)=C/CC/C(C)=C/CC/C(C)=C/CC[C@]1(C)CCc2c(c(C)cc(O)c2C(=O)OC)O1 [Compound 25, (R)-Methyl-6-hydroxy-2-((3E,7E,11E)-13-methoxy-4,8,12-trimethyl-13-oxotrideca-3,7,11-trien-1-yl)-2,8-dimethylchroman-5-carboxylate] | 79.9 ± 3.6% | > 3 µM | > 1 µM | 54.5 ± 8.4% |  |
|  |  |  |  |  | CCOC(=O)c1cc2c3c(c(C)cc2oc1=O)O[C@](C)(CC/C=C(\C)CC/C=C(\C)CCC=C(CO)CO)CC3 [Compound 43, Ethyl-(R)-8-((3E,7E)-13-hydroxy-12-(hydroxymethyl)-4,8-dimethyltrideca-3,7,11-trien-1-yl)-6,8-dimethyl-3-oxo-3,8,9,10-tetrahydropyrano[3,2-f]chromene-2-carboxylate] | 8.1 ± 1% | 1.58 ± 0.21 µM | 0.47 ± 0.14 µM | 29.3 ± 2.6% |  |
| > 3 µM | 80.8 ± 0.6% | > 1 µM | 54.6 ± 5.8% |  | Cc1cc(O)c(C(=O)O)c2c1O[C@](C)(CCC[C@H](C)CCC[C@H](C)CCCC(C)C)CC2 [Compound 5] |  |  |  |  |  |
|  |  |  |  |  | COC(=O)C(C)CCC/C(C)=C/CC/C(C)=C/CC[C@]1(C)CCc2cc(O)cc(C)c2O1 (stereo partly drawn) [Compound 21, (6E,10E)-Methyl-13-((R)-6-hydroxy-2,8-dimethylchroman-2-yl)-2,6,10-trimethyltrideca-6,10-dienoate] | 14.1 ± 6% | 1.14 ± 0.39 µM | 0.17 ± 0.01 µM | 5.8 ± 1.7% |  |
| > 3 µM | 87.1 ± 8% | > 1 µM | 74.5 ± 4.3% |  | CC(C)=CCC/C(C)=C/CC/C(C)=C/CC[C@]1(C)CCc2c(C=O)c(O)cc(C)c2O1 [Compound 7] |  |  |  |  |  |
|  |  |  |  |  | C/C(=C\CC/C(C)=C/CC[C@]1(C)CCc2c(CN(C)C)c(O)cc(C)c2O1)CC/C=C(\C)C(=O)O [Compound 23] | 33.1 ± 8% | 2.06 ± 0.45 µM | 0.07 ± 0.02 µM | 7.9 ± 3.6% |  |
| 0.57 ± 0.09 µM |  | 0.12 ± 0.05 µM | 0.4 ± 0.3% | 17.6 ± 1.3% | C/C(=C\CC/C(C)=C/CC[C@]1(C)CCc2cc(O)cc(C)c2O1)CC/C=C(/C=O)CO [Compound 11] |  |  |  |  |  |
|  |  |  |  |  | Cc1cc(O)cc2c1O[C@](C)(CCCC(C)CCCC(C)CCCC(C)C(=O)O)CC2 (some centres unmarked) [Compound 12b] | 40.8 ± 3.5% |  |  | 51.4 ± 3.1% |  |
|  |  |  |  |  | C/C(=C\CC/C(C)=C/CC[C@]1(C)CCc2c(CN(C)C)c(O)c(CN(C)C)c(C)c2O1)CC/C=C(\C)C(=O)O [Compound 24] | 82.1 ± 24.1% | > 3 µM | > 1 µM | 95.2 ± 7.9% |  |
|  |  |  |  |  | C/C(=C\CC/C(C)=C/CC[C@]1(C)CCc2cc(O)c(C)c(C)c2O1)CC/C=C(\C)C(=O)O [Compound 13c] | 1.6 ± 1.6% |  |  | 4.1 ± 3.6% |  |
|  |  |  |  |  | C/C(=C\CC/C(C)=C/CC[C@]1(C)CCc2c(C=O)c(O)cc(C)c2O1)CCC=C(CO)CO [Compound 34] | 6.1 ± 0.1% | 1.81 ± 0.32 µM | 0.17 ± 0.06 µM | 13.8 ± 4.4% |  |
|  |  |  |  |  | C/C(=C\CC[C@]1(C)CCc2cc(O)cc(C)c2O1)CC/C=C(\C)CCCC(C)C(=O)O (stereo partly drawn) [Compound 19b, (6E,10E)-13-((R)-6-Hydroxy-2,8-dimethylchroman-2-yl)-2,6,10-trimethyltrideca-6,10-dienoic Acid] | 3.8 ± 0.8% | 0.61 ± 0.15 µM |  | 7.4 ± 2.7% |  |
| > 3 µM | 79.2 ± 16.7% | > 1 µM | 59 ± 5.9% |  | CC(C)=CCC/C(C)=C/CC/C(C)=C/CC[C@]1(C)CCc2c(C=O)c(O)c(Br)c(C)c2O1 [Compound 8] |  |  |  |  |  |
| > 3 µM | 92.2 ± 6.3% | > 1 µM | 94.6 ± 3.5% |  | Cc1cc(O)c(C=O)c2c1O[C@](C)(CCC[C@H](C)CCC[C@H](C)CCCC(C)C)CC2 [Compound 3] |  |  |  |  |  |
|  |  |  |  |  | C/C(=C\CC[C@]1(C)CCc2c(C)c(O)c(C)c(C)c2O1)CC/C=C(\C)CCC(=O)O [Compound 15a, (4E,8E)-11-((R)-6-Hydroxy-2,5,7,8-tetramethylchroman-2-yl)-4,8-dimethylundeca-4,8-dienoic Acid] | 10.6 ± 5.8% | 0.45 ± 0.12 µM | 0.44 ± 0.07 µM | 11.5 ± 1.8% |  |
|  |  |  |  |  | C/C(=C\CC[C@]1(C)CCc2cc(O)cc(C)c2O1)CC/C=C/C(=O)O [Compound 16, (2E,6E)-9-[(2R)-6-Hydroxy-2,8-dimethyl-3,4-dihydro-2H-1-benzopyran-2-yl]-6-methylnona-2,6-dienoic Acid] | 77 ± 3.9% | > 3 µM | 0.92 ± 0.04 µM | 47.3 ± 1.1% |  |
